Drawing on patent US20040082635A1, “Fused cyclic compounds and medicinal use thereof” (priority 2001, published 2004), this text covers IC50 for 25 molecules.

As a reminder, the IC50 is the concentration needed to halve the response being measured.

In the experiment the target is T1, HCV polymerase (Hepatitis C virus genotype 1b, UniProt P26663).
T1 construct: a region encoding NS5B (591 amino acids; J Virol 1991 Mar, 65(3), 1105-13) was amplified by PCR; 6 His (N); made in house; host or cells: Escherichia coli
T1 sequence (P26663 2420-3010): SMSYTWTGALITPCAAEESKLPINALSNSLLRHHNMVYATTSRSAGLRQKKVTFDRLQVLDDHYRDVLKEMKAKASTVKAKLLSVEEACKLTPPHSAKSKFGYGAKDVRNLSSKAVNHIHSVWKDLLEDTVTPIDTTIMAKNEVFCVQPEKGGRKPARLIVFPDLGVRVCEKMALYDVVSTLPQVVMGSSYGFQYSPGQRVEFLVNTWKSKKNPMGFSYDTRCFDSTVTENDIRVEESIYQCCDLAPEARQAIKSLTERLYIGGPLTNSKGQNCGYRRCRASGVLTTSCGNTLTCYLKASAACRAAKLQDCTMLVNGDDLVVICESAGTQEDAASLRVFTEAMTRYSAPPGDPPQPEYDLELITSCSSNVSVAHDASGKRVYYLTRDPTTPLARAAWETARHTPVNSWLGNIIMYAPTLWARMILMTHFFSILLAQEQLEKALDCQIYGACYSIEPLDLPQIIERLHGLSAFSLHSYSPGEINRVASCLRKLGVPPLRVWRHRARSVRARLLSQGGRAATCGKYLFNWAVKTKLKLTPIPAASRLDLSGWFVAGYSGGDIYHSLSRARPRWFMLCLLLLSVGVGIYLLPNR
Put plainly: biochemical. The conditions noted are these: read-out: HCV polymerase inhibitory activity IC50.
For `CC(C)CCOc1cccc(Oc2ccc(-c3nc4cc(C(=O)O)ccc4n3C3CCCCC3)cc2)c1` [Example 115, 1-cyclohexyl-2-[4-(3-isopentyloxyphenoxy)phenyl]benzimidazole-5-carboxylic acid], the IC50 amounted to 170 nM. For `O=C(O)c1ccc2c(c1)nc(-c1ccc(OCc3ccccc3-c3ccc(C(F)(F)F)cc3)cc1)n2C1CCCCC1` [Example 117, 1-cyclohexyl-2-{4-[2-(4-trifluoromethylphenyl)benzyloxy]-phenyl}benzimidazole-5-carboxylic acid], the IC50 was 75 nM. For `O=C(O)c1ccc2c(c1)nc(-c1ccc(OC(c3ccc(Cl)cc3)c3ccc(Cl)cc3)cc1)n2C1CCCCC1` [Example 118, 2-{4-[bis(4-chlorophenyl)methoxy]phenyl}-1-cyclohexylbenzimidazole-5-carboxylic acid], the half-maximal inhibitory concentration (IC50) amounted to 140 nM. Consider `COc1ccc(CCOc2ccc(-c3nc4cc(C(=O)O)ccc4n3C3CCCCC3)cc2)cc1` [Example 119, 1-cyclohexyl-2-{4-[2-(4-methoxyphenyl)ethoxy]phenyl}-benzimidazole-5-carboxylic acid], for which the IC50 amounted to 130 nM. With `COc1cccc(CCOc2ccc(-c3nc4cc(C(=O)O)ccc4n3C3CCCCC3)cc2)c1` [Example 121, 1-cyclohexyl-2-{4-[2-(3-methoxyphenyl)ethoxy]phenyl}-benzimidazole-5-carboxylic acid], the IC50 came to 190 nM. As for `O=C(O)c1ccc2c(c1)nc(-c1ccc(OCc3ccccc3)cc1)n2C1CCCCCC1` [Example 122, 2-(4-benzyloxyphenyl)-1-cycloheptylbenzimidazole-5-carboxylic acid], the IC50 came out at 510 nM. The figure for `O=C(O)c1ccc2c(c1)nc(-c1ccc(Oc3ccccc3OCCc3ccccc3)cc1)n2C1CCCCC1` [Example 123, 1-cyclohexyl-2-[4-(2-phenethyloxyphenoxy)phenyl]benzimidazole-5-carboxylic acid] is 100 nM; for `O=C(O)c1ccc2c(c1)nc(-c1ccc(Oc3cccc(OCCc4ccccc4)c3)cc1)n2C1CCCCC1` [Example 124, 1-cyclohexyl-2-[4-(3-phenethyloxyphenoxy)phenyl]benzimidazole-5-carboxylic acid] it is 91 nM; for `O=C(O)c1ccc2c(c1)nc(-c1ccc(OCC(c3ccccc3)c3ccccc3)cc1)n2C1CCCCC1` [Example 125, 1-cyclohexyl-2-[4-(2,2-diphenylethoxy)phenyl]benzimidazole-5-carboxylic acid] it is 120 nM. The figure for `O=C(O)c1ccc2c(c1)nc(-c1ccc(Oc3ccccc3Oc3ccccc3)cc1)n2C1CCCCC1` [Example 128, 1-cyclohexyl-2-[4-(2-phenoxyphenoxy)phenyl]benzimidazole-5-carboxylic acid] is 140 nM. The same measure for `O=C(O)c1ccc2c(c1)nc(-c1ccc(OCc3ccccc3-c3ccc(C(F)(F)F)cc3)cc1F)n2C1CCCCC1` [Example 131, 1-cyclohexyl-2-{2-fluoro-4-[2-(4-trifluoromethylphenyl)-benzyloxy]phenyl}benzimidazole-5-carboxylic acid]: 46 nM; for `O=C(O)c1ccc2c(c1)nc(-c1ccc(Oc3ccc(OCc4ccccc4)cc3)cc1)n2C1CCCCC1` [Example 132, 2-[4-(4-benzyloxyphenoxy)phenyl]-1-cyclohexylbenzimidazole-5-carboxylic acid]: 55 nM.

As for `Cc1ccc(C(Oc2ccc(-c3nc4cc(C(=O)O)ccc4n3C3CCCCC3)cc2)c2ccc(C)cc2)cc1` [Example 133, 2-{4-[bis(4-methylphenyl)methoxy]phenyl}-1-cyclohexylbenzimidazole-5-carboxylic acid], the IC50 was determined as 120 nM. In the case of `O=C(O)c1ccc2c(c1)nc(-c1ccc(OC(c3ccc(F)cc3)c3ccc(F)cc3)cc1)n2C1CCCCC1` [Example 134, 2-{4-[bis(4-fluorophenyl)methoxy]phenyl}-1-cyclohexylbenzimidazole-5-carboxylic acid], the IC50 stood at 71 nM. On to `O=C(O)c1ccc2c(c1)nc(-c1ccc(OCCc3cccc(OCc4ccccc4)c3)cc1)n2C1CCCCC1` [Example 139, 2-{4-[2-(3-benzyloxyphenyl)ethoxy]phenyl}-1-cyclohexylbenzimidazole-5-carboxylic acid], for which the IC50 was determined as 260 nM. The figure for `O=C(O)COc1ccccc1Oc1ccc(-c2nc3cc(C(=O)O)ccc3n2C2CCCCC2)cc1` [Example 140, 2-[4-(2-carboxymethyloxyphenoxy)phenyl]-1-cyclohexylbenzimidazole-5-carboxylic acid] is 110 nM; for `O=C(O)COc1cccc(Oc2ccc(-c3nc4cc(C(=O)O)ccc4n3C3CCCCC3)cc2)c1` [Example 141, 2-[4-(3-carboxymethyloxyphenoxy)phenyl]-1-cyclohexylbenzimidazole-5-carboxylic acid] it is 430 nM.

Turning to `Cc1cc(OCc2ccccc2-c2ccc(C(F)(F)F)cc2)ccc1-c1nc2cc(C(=O)O)ccc2n1C1CCCCC1` [Example 144, 1-cyclohexyl-2-{2-methyl-4-[2-(4-trifluoromethylphenyl)-benzyloxy]phenyl}benzimidazole-5-carboxylic acid], the IC50 came out at 190 nM.

Consider `CC(C)(C)c1ccc(-c2ccc(Cl)cc2COc2ccc(-c3nc4cc(C(=O)O)ccc4n3C3CCCCC3)cc2)cc1` [Example 145, 2-{4-[2-(4-tert-butylphenyl)-5-chlorobenzyloxy]phenyl}-1-cyclohexylbenzimidazole-5-carboxylic acid], for which the IC50 is 88 nM. In the case of `O=C(O)c1ccc2c(c1)nc(-c1ccc(OCc3cc(Cl)ccc3-c3ccccc3)cc1F)n2C1CCCCC1` [Example 146, 2-{4-(3-chloro-6-phenylbenzyloxy)-2-fluorophenyl}-1-cyclohexylbenzimidazole-5-carboxylic acid], the IC50 came out at 43 nM.

Regarding `O=C(O)c1ccc2c(c1)nc(-c1ccc(OCc3cc(Cl)ccc3-c3cc(Cl)cc(Cl)c3)cc1)n2C1CCCCC1` [Example 147, 2-{4-[3-chloro-6-(3,5-dichlorophenyl)benzyloxy]phenyl}-1-cyclohexylbenzimidazole-5-carboxylic acid], the IC50 amounted to 310 nM. `O=C(O)c1ccc2c(c1)nc(-c1ccc(OC(c3ccc(F)cc3)c3ccc(F)cc3)cc1F)n2C1CCCCC1` [Example 148, 2-{4-[bis(4-fluorophenyl)methoxy]-2-fluorophenyl}-1-cyclohexylbenzimidazole-5-carboxylic acid]: the IC50 worked out at 38 nM.

Consider `O=C(O)c1ccc2c(c1)nc(-c1ccc(Oc3ccc(OCc4ccccc4)cc3)cc1Cl)n2C1CCCCC1` [Example 149, 2-{4-(4-benzyloxyphenoxy)-2-chlorophenyl}-1-cyclohexylbenzimidazole-5-carboxylic acid], for which the IC50 came to 150 nM. The same measure for `O=C(O)c1ccc2c(c1)nc(-c1ccc(Oc3ccc(OCc4ccccc4)cc3)cc1C(F)(F)F)n2C1CCCCC1` [Example 150, 2-{4-(4-benzyloxyphenoxy)-2-trifluoromethylphenyl}-1-cyclohexylbenzimidazole-5-carboxylic acid]: 240 nM; for `O=C(O)c1ccc2c(c1)nc(-c1ccc(OCc3cc(Cl)ccc3-c3ccccc3C(F)(F)F)cc1)n2C1CCCCC1` [Example 151, 2-{4-[3-chloro-6-(2-trifluoromethylphenyl)benzyloxy]phenyl}-1-cyclohexylbenzimidazole-5-carboxylic acid]: 200 nM.
